Active and inactive are the calls of the source. No cut-off for these calls is given here.
What was measured:
[1] = biological target: Mitogen-activated protein kinase 1 (Homo sapiens) (UniProt P28482); test: Inhibition of recombinant human N-terminal GST-tagged ERK2 (2 to 360 residues) expressed in Escherichia coli assessed as remaining activity at 1 uM using MBP as substrate incubated for 30 mins in presence of [gamma-33P]ATP by filter binding method relative to control
[2] = biological target: Serine/threonine-protein kinase PLK1 (Homo sapiens) (UniProt P53350); test: Inhibition of recombinant human N-terminal His6-tagged PLK1 (1 to 603 residues) expressed in baculovirus infected Sf21 cells assessed as remaining activity at 1 uM using ISDELMDATFADQEAKKK as substrate incubated for 30 mins in presence of [gamma-33P]ATP by filter binding method relative to control
[3] = biological target: Dual specificity mitogen-activated protein kinase kinase 2 (Homo sapiens) (UniProt P36507); test: Inhibition of recombinant human N-terminal GST/C-terminal His6-tagged MKK2 (2 to 400 residues) expressed in Escherichia coli assessed as remaining activity at 1 uM using MBP as substrate incubated for 30 mins in presence of [gamma-33P]ATP by filter binding method relative to control
[4] = biological target: MAP kinase-activated protein kinase 5 (Homo sapiens) (UniProt Q8IW41); test: Inhibition of recombinant human His6-tagged PRAK (1 to 471 residues) expressed in baculovirus infected Sf21 cells assessed as remaining activity at 1 uM using phosphorylase b peptide as substrate incubated for 30 mins in presence of [gamma-33P]ATP by filter binding method relative to control
[5] = biological target: Serine/threonine-protein kinase PAK 5 (Homo sapiens) (UniProt Q9P286); test: Inhibition of recombinant human N-terminal GST-tagged PAK5 (2 to 719 residues) expressed in Escherichia coli assessed as remaining activity at 1 uM using RRRLSFAEPG as substrate incubated for 30 mins in presence of [gamma-33P]ATP by filter binding method relative to control
[6] = biological target: Tyrosine-protein kinase Lck (Homo sapiens) (UniProt P06239); test: Inhibition of recombinant human N-terminal His6-tagged LCK (2 to 509 residues) expressed in baculovirus infected Sf21 cells assessed as remaining activity at 1 uM using KVEKIGEGTYGVVYK as substrate incubated for 30 mins in presence of [gamma-33P]ATP by filter binding method relative to control
[7] = biological target: Dual specificity protein kinase CLK2 (Homo sapiens) (UniProt P49760); test: Inhibition of recombinant human N-terminal GST-tagged CLK2 (138 to 499 residues) expressed in baculovirus infected Sf21 cells assessed as remaining activity at 1 uM using RNRYRDVSPFDHSR as substrate incubated for 30 mins in presence of [gamma-33P]ATP by filter binding method relative to control
[8] = biological target: Macrophage-stimulating protein receptor (Homo sapiens) (UniProt Q04912); test: Inhibition of human RON at 1 uM using polyEY as substrate in presence of 33P-ATP by ProQinase assay
[9] = biological target: NT-3 growth factor receptor (Homo sapiens) (UniProt Q16288); test: Inhibition of human TRKC at 1 uM using polyEy as substrate in presence of 33P-ATP by ProQinase assay
[10] = biological target: Insulin receptor (Homo sapiens) (UniProt P06213); test: Inhibition of human INSR at 1 uM using poly(Ala,Glu,Lys,Tyr) as substrate in presence of 33P-ATP by ProQinase assay
[11] = biological target: Epidermal growth factor receptor (Homo sapiens) (UniProt P00533); test: Inhibition of human EGFR at 1 uM using RBER-CHKtide as substrate in presence of 33P-ATP by ProQinase assay
[12] = biological target: Mitogen-activated protein kinase kinase kinase 20 (Homo sapiens) (UniProt Q9NYL2); test: Inhibition of human ZAK at 1 uM using MBP as substrate in presence of 33P-ATP by ProQinase assay
[13] = biological target: Serine/threonine-protein kinase 25 (Homo sapiens) (UniProt O00506); test: Inhibition of human STK25 at 1 uM using casein as substrate in presence of 33P-ATP by ProQinase assay
[14] = biological target: Tyrosine-protein kinase JAK3 (Homo sapiens) (UniProt P52333); test: Inhibition of human JAK3 at 1 uM using poly(Ala,Glu,Lys,Tyr) as substrate in presence of 33P-ATP by ProQinase assay
[15] = biological target: Ephrin type-A receptor 3 (Homo sapiens) (UniProt P29320); test: Inhibition of human EPHA3 at 1 uM using polyEY as substrate in presence of 33P-ATP by ProQinase assay
[16] = biological target: Bone morphogenetic protein receptor type-1A (Homo sapiens) (UniProt P36894); test: Inhibition of human BMPR1A at 1 uM using casein as substrate in presence of 33P-ATP by ProQinase assay
[17] = biological target: Ribosomal protein S6 kinase alpha-6 (Homo sapiens) (UniProt Q9UK32); test: Inhibition of human RPS6KA6 at 1 uM using RBER-GSK3 as substrate in presence of 33P-ATP by ProQinase assay
[18] = biological target: Ephrin type-B receptor 2 (Homo sapiens) (UniProt P29323); test: Inhibition of human EPHB2 at 1 uM using poly(Ala,Glu,Lys,Tyr) as substrate in presence of 33P-ATP by ProQinase assay
[19] = biological target: Death-associated protein kinase 2 (Homo sapiens) (UniProt Q9UIK4); test: Inhibition of human DAPK2 at 1 uM using RB-S6P as substrate in presence of 33P-ATP by ProQinase assay
[20] = biological target: Glycogen synthase kinase-3 alpha (Homo sapiens) (UniProt P49840); test: Inhibition of human GSK3alpha at 1 uM using SUPT5 754-837 as substrate in presence of 33P-ATP by ProQinase assay
[21] = biological target: G protein-coupled receptor kinase 5 (Homo sapiens) (UniProt P34947); test: Inhibition of human GRK5 at 1 uM using casein as substrate in presence of 33P-ATP by ProQinase assay
[22] = biological target: Aurora kinase B (Homo sapiens) (UniProt Q96GD4); test: Inhibition of human AuroraB at 1 uM using bio-4xCHKT as substrate in presence of 33P-ATP by ProQinase assay
[23] = biological target: Death-associated protein kinase 1 (Homo sapiens) (UniProt P53355); test: Inhibition of human DAPK1 at 1 uM using RBER-GSK3 as substrate in presence of 33P-ATP by ProQinase assay
[24] = biological target: Activin receptor type-1-like (Homo sapiens) (UniProt P37023); test: Inhibition of human ACVRL1 at 1 uM using casein as substrate in presence of 33P-ATP by ProQinase assay
Homo sapiens = species: Homo sapiens; test: Inhibition of DGK (unknown origin) at 1 uM
[25] = biological target: T1, Phosphatidylinositol 4-phosphate 5-kinase type-1 alpha (Homo sapiens, UniProt Q99755); test: Inhibition of PIP5K1A (unknown origin) using D-myo-PIP as substrate incubated for 45 mins by ADP-Glo assay
[26] = biological target: T1, Phosphatidylinositol 4-phosphate 5-kinase type-1 alpha; test: Inhibition of human PIP5K1A using PI/PS as substrate by ADP-Glo assay

T1 sequence (Q99755 whole entry): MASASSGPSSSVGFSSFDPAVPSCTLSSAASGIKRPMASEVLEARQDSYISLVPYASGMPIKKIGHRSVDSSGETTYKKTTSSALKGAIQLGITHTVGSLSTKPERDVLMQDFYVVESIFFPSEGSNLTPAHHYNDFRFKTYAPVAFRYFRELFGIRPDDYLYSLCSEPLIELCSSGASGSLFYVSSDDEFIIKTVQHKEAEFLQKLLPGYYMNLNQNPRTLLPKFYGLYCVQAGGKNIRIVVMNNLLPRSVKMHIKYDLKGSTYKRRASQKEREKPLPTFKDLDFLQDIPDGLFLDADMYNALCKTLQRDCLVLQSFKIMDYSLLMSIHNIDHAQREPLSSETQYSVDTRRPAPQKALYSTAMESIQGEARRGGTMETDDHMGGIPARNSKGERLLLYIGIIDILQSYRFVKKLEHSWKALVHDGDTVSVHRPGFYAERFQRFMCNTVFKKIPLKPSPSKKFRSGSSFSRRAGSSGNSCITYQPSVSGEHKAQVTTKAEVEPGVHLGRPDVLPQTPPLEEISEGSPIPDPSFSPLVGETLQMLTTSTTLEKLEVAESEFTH
Insulin receptor (Homo sapiens), sequence (P06213 28-758 limits assumed): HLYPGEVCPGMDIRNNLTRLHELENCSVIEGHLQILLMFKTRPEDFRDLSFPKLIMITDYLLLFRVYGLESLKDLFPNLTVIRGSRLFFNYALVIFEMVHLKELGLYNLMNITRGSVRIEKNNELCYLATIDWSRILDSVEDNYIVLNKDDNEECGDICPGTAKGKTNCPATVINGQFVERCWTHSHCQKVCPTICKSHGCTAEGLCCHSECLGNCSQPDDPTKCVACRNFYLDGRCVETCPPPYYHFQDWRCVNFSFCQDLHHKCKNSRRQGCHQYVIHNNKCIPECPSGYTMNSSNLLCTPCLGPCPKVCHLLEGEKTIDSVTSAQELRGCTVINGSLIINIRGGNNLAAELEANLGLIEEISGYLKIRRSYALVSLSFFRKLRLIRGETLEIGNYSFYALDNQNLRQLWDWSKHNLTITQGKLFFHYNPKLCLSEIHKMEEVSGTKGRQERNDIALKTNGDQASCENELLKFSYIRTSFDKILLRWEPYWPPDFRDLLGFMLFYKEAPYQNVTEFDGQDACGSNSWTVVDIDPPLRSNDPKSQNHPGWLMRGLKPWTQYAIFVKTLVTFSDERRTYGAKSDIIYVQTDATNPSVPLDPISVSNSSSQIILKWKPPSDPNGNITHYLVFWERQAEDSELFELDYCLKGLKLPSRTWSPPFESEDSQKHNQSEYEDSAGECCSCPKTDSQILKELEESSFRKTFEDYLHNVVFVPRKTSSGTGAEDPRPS
Insulin receptor (Homo sapiens), sequence (P06213 763-1382 limits assumed): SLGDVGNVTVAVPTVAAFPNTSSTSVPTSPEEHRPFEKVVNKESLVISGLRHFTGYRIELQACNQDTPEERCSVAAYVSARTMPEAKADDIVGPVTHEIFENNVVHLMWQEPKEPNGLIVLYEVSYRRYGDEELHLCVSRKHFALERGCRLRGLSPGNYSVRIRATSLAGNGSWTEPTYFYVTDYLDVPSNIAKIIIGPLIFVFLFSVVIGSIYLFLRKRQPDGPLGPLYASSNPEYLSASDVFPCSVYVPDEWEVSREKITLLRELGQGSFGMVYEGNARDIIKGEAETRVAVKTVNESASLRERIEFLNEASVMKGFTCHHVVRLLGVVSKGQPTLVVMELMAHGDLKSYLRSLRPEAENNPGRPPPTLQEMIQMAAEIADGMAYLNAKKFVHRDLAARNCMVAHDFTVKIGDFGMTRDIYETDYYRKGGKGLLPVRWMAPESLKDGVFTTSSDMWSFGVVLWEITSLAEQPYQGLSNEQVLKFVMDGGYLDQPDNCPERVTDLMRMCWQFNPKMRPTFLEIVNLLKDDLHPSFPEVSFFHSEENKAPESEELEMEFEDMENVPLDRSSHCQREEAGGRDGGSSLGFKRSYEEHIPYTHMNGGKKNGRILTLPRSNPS
Glycogen synthase kinase-3 alpha (Homo sapiens), sequence (P49840 2-483 limits assumed): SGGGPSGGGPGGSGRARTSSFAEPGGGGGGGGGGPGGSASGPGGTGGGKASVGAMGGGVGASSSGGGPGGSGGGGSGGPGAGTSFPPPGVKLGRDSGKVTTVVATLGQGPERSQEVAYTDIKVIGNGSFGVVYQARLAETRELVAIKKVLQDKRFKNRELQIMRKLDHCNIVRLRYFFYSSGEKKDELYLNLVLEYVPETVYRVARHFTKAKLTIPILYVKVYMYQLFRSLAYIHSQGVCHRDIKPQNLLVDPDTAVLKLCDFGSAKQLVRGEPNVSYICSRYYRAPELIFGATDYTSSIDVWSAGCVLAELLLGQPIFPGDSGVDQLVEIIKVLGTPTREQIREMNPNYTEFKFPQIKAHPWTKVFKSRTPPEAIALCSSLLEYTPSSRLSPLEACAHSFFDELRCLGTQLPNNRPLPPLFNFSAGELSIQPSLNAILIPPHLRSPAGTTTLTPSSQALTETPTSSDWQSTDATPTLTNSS
Epidermal growth factor receptor (Homo sapiens), sequence (P00533 whole entry): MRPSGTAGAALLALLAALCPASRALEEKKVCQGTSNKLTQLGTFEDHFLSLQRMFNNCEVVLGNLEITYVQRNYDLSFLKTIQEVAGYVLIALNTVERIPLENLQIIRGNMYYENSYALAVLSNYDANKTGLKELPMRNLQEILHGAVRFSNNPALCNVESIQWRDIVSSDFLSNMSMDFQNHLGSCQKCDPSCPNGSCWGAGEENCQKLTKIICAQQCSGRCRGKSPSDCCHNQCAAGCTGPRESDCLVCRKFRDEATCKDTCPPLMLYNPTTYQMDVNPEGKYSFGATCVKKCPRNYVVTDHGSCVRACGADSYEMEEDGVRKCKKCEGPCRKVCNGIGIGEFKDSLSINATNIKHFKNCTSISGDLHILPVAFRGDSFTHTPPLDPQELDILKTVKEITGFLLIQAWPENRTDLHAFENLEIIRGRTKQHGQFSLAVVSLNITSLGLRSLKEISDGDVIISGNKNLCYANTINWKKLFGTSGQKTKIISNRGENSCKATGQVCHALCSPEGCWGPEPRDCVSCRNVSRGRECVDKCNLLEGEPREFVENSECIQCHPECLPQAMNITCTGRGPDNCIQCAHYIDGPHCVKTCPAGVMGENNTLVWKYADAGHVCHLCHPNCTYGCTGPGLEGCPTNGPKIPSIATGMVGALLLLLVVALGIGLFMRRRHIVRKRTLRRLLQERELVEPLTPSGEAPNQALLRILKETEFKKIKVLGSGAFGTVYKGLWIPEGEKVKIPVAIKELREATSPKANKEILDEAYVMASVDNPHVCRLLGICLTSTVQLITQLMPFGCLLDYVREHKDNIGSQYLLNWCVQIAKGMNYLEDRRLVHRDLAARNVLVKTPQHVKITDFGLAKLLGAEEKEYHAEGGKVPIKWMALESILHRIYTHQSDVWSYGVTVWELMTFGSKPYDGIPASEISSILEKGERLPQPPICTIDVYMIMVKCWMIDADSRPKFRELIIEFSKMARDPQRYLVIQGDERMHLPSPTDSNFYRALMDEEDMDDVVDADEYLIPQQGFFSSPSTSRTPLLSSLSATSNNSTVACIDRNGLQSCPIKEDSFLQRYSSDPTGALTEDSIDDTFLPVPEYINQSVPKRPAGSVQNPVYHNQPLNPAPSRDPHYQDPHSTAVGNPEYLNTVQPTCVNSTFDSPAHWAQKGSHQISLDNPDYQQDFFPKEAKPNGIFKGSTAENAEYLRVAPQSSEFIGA
Tyrosine-protein kinase Lck (Homo sapiens), sequence (P06239 2-509 limits assumed): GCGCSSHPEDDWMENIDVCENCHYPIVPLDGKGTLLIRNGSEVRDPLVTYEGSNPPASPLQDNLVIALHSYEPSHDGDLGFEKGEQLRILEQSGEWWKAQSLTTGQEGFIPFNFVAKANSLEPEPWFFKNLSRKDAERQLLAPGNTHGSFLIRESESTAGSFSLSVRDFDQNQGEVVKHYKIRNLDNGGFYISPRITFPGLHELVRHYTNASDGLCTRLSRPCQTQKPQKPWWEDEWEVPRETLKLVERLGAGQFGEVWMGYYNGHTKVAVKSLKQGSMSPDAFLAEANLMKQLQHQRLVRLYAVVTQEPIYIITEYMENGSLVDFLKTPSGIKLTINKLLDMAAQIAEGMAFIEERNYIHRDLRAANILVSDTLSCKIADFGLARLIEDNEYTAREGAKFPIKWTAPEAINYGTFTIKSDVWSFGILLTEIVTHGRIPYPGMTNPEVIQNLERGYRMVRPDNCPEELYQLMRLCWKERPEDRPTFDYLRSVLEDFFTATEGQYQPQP
Serine/threonine-protein kinase PLK1 (Homo sapiens), sequence (P53350 whole entry, the tested form may be a part): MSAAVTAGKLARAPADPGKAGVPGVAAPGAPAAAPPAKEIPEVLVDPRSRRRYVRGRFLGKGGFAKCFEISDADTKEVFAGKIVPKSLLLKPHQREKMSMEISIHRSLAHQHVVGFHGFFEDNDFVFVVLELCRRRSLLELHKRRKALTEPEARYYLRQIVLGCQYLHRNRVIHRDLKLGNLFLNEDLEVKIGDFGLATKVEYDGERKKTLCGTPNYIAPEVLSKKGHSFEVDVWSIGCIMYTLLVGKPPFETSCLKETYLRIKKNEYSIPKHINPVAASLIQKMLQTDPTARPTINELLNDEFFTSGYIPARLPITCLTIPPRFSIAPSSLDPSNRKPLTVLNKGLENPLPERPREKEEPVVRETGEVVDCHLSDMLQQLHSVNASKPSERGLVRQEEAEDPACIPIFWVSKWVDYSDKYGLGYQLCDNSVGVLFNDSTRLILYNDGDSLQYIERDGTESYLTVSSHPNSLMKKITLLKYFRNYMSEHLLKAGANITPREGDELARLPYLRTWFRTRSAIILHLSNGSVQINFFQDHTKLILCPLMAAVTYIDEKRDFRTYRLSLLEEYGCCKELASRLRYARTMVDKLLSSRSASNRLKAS

Structure (SMILES): CC(C)(O)CNc1ncc(-c2ccnc(Nc3ccnc(Cl)c3)n2)c(CC2CC2)n1
- Activity [1]: 116%
- Activity [2]: 114%
- Activity [3]: 111%
- Activity [4]: 105%
- Activity [5]: 96%
- Activity [6]: 92%
- Activity [7]: 82%
- inhibition [8]: inactive
- inhibition [9]: inactive
- inhibition [10]: inactive
- inhibition [11]: inactive
- inhibition [12]: inactive
- inhibition [13]: inactive
- inhibition [14]: inactive
- inhibition [15]: inactive
- inhibition [16]: inactive
- inhibition [17]: inactive
- inhibition [18]: inactive
- inhibition [19]: inactive
- inhibition [20]: inactive
- inhibition [21]: inactive
- inhibition [22]: inactive
- inhibition [23]: inactive
- inhibition [24]: inactive
- inhibition (Homo sapiens): inactive
- IC50 [25]: 11.3 µM
- IC50 [26]: 4.93 µM
